Several values for one entry are separate records, joined by “and”; a condition that tells them apart may be missing. Equal entries are not always repeated. Where two headings read alike, the source gives them in different places.
Tests used:
SARS-CoV-2 replicon = experiment: microbe, parasite or virus in culture; type: cell-based; details: read-out: Replicon EC50
[1] = tested on: human coronavirus (HCoV) 229E; experiment: microbe, parasite or virus in culture; type: cell-based, human coronavirus 229E; details: MRCS cells, HCoV 229E, 3 days, CellTiter Glo, read-out: 229E CPE EC50
[2] = Severe acute respiratory syndrome coronavirus 2, Huh-7, 24 h
[3] = unidentified human coronavirus, 72 h

SMILES | EC50 (SARS-CoV-2 replicon; [2]) [nM] | EC50 (SARS-CoV-2 replicon) | EC50 [1, 3] [nM] | EC50 [1] [nM]
CC(C)(C)[C@H](NC(=O)CCC(F)(F)F)C(=O)N1C[C@H]2[C@@H]([C@H]1C(=O)N[C@H](C#N)C[C@@H]1CCNC1=O)C2(C)C [Compound 138] | 330 | 500 nM | 622 | 
CC(C)(C)[C@H](NC(=O)C(c1ccccc1)c1ccccc1)C(=O)N1C[C@H]2[C@@H]([C@H]1C(=O)N[C@H](C#N)C[C@@H]1CCNC1=O)C2(C)C [Compound 18, (1R,2S,5S)—N—((S)-1-cyano-2-((S)-2-oxopyrrolidin-3-yl)ethyl)-3-((S)-2-(2,2-diphenylacetamido)-3,3-dimethylbutanoyl)-6,6-dimethyl-3-azabicyclo[3.1.0]hexane-2-carboxamide] | 1260 | 1410 nM | 850 | 
CC(C)(C)[C@H](NS(=O)(=O)c1ccc(F)cc1)C(=O)N1C[C@H]2[C@@H]([C@H]1C(=O)N[C@H](C#N)C[C@@H]1CCNC1=O)C2(C)C [Compound 53, (1R,2S,5S)—N—((S)-1-cyano-2-((S)-2-oxopyrrolidin-3-yl)ethyl)-3-((S)-2-((4-fluorophenyl)sulfonamido)-3,3-dimethylbutanoyl)-6,6-dimethyl-3-azabicyclo[3.1.0]hexane-2-carboxamide] | 51 | 100 nM | 265 | 364
CC(C)(C)[C@H](NS(=O)(=O)c1ccc(C(F)(F)F)cc1)C(=O)N1C[C@H]2[C@@H]([C@H]1C(=O)N[C@H](C#N)C[C@@H]1CCNC1=O)C2(C)C [Compound 90] |  | 67 nM and 76 nM | 254 | 387
CN(C)[C@@H]1C[C@@H](C(=O)N[C@H](C#N)C[C@@H]2CCNC2=O)N(C(=O)[C@@H](NC(=O)C(F)(F)F)C(C)(C)C)C1 [Compound 116] | 740 |  | > 30000 | 
CC(C)(C)[C@H](NS(=O)(=O)c1ccc(F)c(F)c1)C(=O)N1C[C@H]2[C@@H]([C@H]1C(=O)N[C@H](C#N)C[C@@H]1CCNC1=O)C2(C)C [Compound 99] | 88 | 100 nM | 271 | 344
CC(C)NC(=S)N[C@H](C(=O)N1C[C@H]2[C@@H]([C@H]1C(=O)N[C@H](C#N)C[C@@H]1CCNC1=O)C2(C)C)C(C)(C)C [Compound 73] | 140 |  | 1320 | 
CNC(=O)N[C@H](C(=O)N1C[C@H](N(C)C)C[C@H]1C(=O)N[C@H](C#N)C[C@@H]1CCNC1=O)C(C)(C)C [Compound 128] | > 10000 |  | > 30000 | 
CC(C)[C@H]1CC[C@H](C)C[C@@H]1OCC(=O)N[C@H](C(=O)N1C[C@H]2[C@@H]([C@H]1C(=O)N[C@H](C#N)C[C@@H]1CCNC1=O)C2(C)C)C(C)(C)C [Compound 110] | 1360 |  | 23500 | 
CC(C)(C)NC(=O)N[C@H](C(=O)N1C[C@H]2[C@@H]([C@H]1C(=O)N[C@H](C#N)C[C@@H]1CCNC1=O)C2(C)C)C(C)(C)C [Compound 87] | 450 | 800 nM | 9070 | 14000
Cc1cc(S(=O)(=O)N[C@H](C(=O)N2C[C@H]3[C@@H]([C@H]2C(=O)N[C@H](C#N)C[C@@H]2CCNC2=O)C3(C)C)C(C)(C)C)sc1C [Compound 169] | 37 |  | 163 | 
CC(C)(C)[C@H](NS(=O)(=O)c1cccc(F)c1)C(=O)N1C[C@H]2[C@@H]([C@H]1C(=O)N[C@H](C#N)C[C@@H]1CCNC1=O)C2(C)C [Compound 79] | 81 | 140 nM | 256 | 266
CC(C)(C)[C@H](NC(=O)c1ccc(F)cc1)C(=O)N1C[C@H]2[C@@H]([C@H]1C(=O)N[C@H](C#N)C[C@@H]1CCNC1=O)C2(C)C [Compound 94] | 960 |  | 4290 | 
C=CS(=O)(=O)N[C@H](C(=O)N1C[C@H]2[C@@H]([C@H]1C(=O)N[C@H](C#N)C[C@@H]1CCNC1=O)C2(C)C)C(C)(C)C [Compound 84] | 290 |  | 910 | 
CC(C)c1cc(C(C)C)c(S(=O)(=O)N[C@H](C(=O)N2C[C@H]3[C@@H]([C@H]2C(=O)N[C@H](C#N)C[C@@H]2CCNC2=O)C3(C)C)C(C)(C)C)c(C(C)C)c1 [Compound 134] | 7990 | > 10000 nM | > 30000 | 
CC(C)(C)[C@H](NS(=O)(=O)c1ccc(OC(F)(F)F)cc1)C(=O)N1C[C@H]2[C@@H]([C@H]1C(=O)N[C@H](C#N)C[C@@H]1CCNC1=O)C2(C)C [Compound 89] | 140 | 160 nM | 322 | 468
CC(C)(C)[C@H](NC(=O)/C(F)=C(\F)C(F)(C(F)(F)F)C(F)(F)F)C(=O)N1C[C@H]2[C@@H]([C@H]1C(=O)N[C@H](C#N)C[C@@H]1CCNC1=O)C2(C)C [Compound 163] | > 10000 |  | 4630 | 
CC(C)(C)[C@H](NC(=S)Nc1ccccc1)C(=O)N1C[C@H]2[C@@H]([C@H]1C(=O)N[C@H](C#N)C[C@@H]1CCNC1=O)C2(C)C [Compound 74] | 490 |  | 11500 | 
CC(C)(C)[C@H](NC(=O)C12CC(C1)C2)C(=O)N1C[C@H]2[C@@H]([C@H]1C(=O)N[C@H](C#N)C[C@@H]1CCNC1=O)C2(C)C [Compound 20] | 186 | 232 nM | 2740 | 

SMILES | EC50 (SARS-CoV-2 replicon; [2]) [nM] | EC50 (SARS-CoV-2 replicon) | EC50 [1, 3] [nM] | EC50 [1] [nM]
CC1(NC(=S)N[C@H](C(=O)N2C[C@H]3[C@@H]([C@H]2C(=O)N[C@H](C#N)C[C@@H]2CCNC2=O)C3(C)C)C(C)(C)C)CC1 [Compound 126] | 24 |  | 193 | 
CC1(C)[C@@H]2[C@@H](C(=O)N[C@H](C#N)C[C@@H]3CCNC3=O)N(C(=O)[C@@H](NC(=O)C(F)(F)F)C34CC(C(F)(F)F)(C3)C4)C[C@@H]21 [Compound 91] | 330 |  | 10900 | 
CN(C)C(=S)N[C@H](C(=O)N1C[C@H]2[C@@H]([C@H]1C(=O)N[C@H](C#N)C[C@@H]1CCNC1=O)C2(C)C)C(C)(C)C [Compound 77] | 4120 |  | 21100 | 
CC(C)(C)[C@H](NC(=O)NC1(CS(=O)(=O)C(C)(C)C)CCCCC1)C(=O)N1C[C@H]2[C@@H]([C@H]1C(=O)N[C@H](C#N)C[C@@H]1CCNC1=O)C2(C)C [Compound 16] | 1290 | 1880 nM and 2040 nM | 16800 | 
Cc1ccc(S(=O)(=O)N(C(=O)C(F)(F)F)[C@H](C(=O)N2C[C@H]3[C@@H]([C@H]2C(=O)N[C@H](C#N)C[C@@H]2CCNC2=O)C3(C)C)C(C)(C)C)cc1 [Compound 167] | 20 |  | 120 | 
CC(C)(C)[C@H](NC(=O)C(F)(F)F)C(=O)N1C[C@H]2[C@@H]([C@H]1C(=O)N[C@H](/C=C/C#N)C[C@@H]1CCNC1=O)C2(C)C [Compound 103] | 650 |  | 16900 | 
Cc1c(C)c(C)c(S(=O)(=O)N[C@H](C(=O)N2C[C@H]3[C@@H]([C@H]2C(=O)N[C@H](C#N)C[C@@H]2CCNC2=O)C3(C)C)C(C)(C)C)c(C)c1C [Compound 142] | 160 | 170 nM | 283 | 
C=CCS(=O)(=O)N[C@H](C(=O)N1C[C@H]2[C@@H]([C@H]1C(=O)N[C@H](C#N)C[C@@H]1CCNC1=O)C2(C)C)C(C)(C)C [Compound 131] | 120 | 180 nM | 657 | 
CC(C)(C)[C@H](NC(=O)C(F)(F)C(F)(F)Cl)C(=O)N1C[C@H]2[C@@H]([C@H]1C(=O)N[C@H](C#N)C[C@@H]1CCNC1=O)C2(C)C [Compound 80] | 6.5 | 13 nM | 92 | 116
Cc1cc(S(=O)(=O)N[C@H](C(=O)N2C[C@H]3[C@@H]([C@H]2C(=O)N[C@H](C#N)C[C@@H]2CCNC2=O)C3(C)C)C(C)(C)C)sc1Cl [Compound 168] | 41 |  | 116 | 
CC(C)(C)[C@H](NS(=O)(=O)C[C@]12CC[C@H](CC1=O)C2(C)C)C(=O)N1C[C@H]2[C@@H]([C@H]1C(=O)N[C@H](C#N)C[C@@H]1CCNC1=O)C2(C)C [Compound 98] | 3650 |  | 3310 | 
CC(C)(C)[C@H](NC(=O)CC(F)(F)F)C(=O)N1C[C@H]2[C@@H]([C@H]1C(=O)N[C@H](C#N)C[C@@H]1CCNC1=O)C2(C)C [Compound 161] | 180 |  | 585 | 
CC(C)(C)[C@H](NC(=O)c1ccc(F)c(F)c1)C(=O)N1C[C@H]2[C@@H]([C@H]1C(=O)N[C@H](C#N)C[C@@H]1CCNC1=O)C2(C)C [Compound 108] | 330 |  | 3900 | 
CC(C)(C)[C@H](NC(=O)c1cnc2[nH]ccc2c1)C(=O)N1C[C@H]2[C@@H]([C@H]1C(=O)N[C@H](C#N)C[C@@H]1CCNC1=O)C2(C)C [Compound 32] | 3150 |  | 13100 | 
COc1cc(/C=C/C(=O)N[C@H](C(=O)N2C[C@H]3[C@@H]([C@H]2C(=O)N[C@H](C#N)C[C@@H]2CCNC2=O)C3(C)C)C(C)(C)C)cc(OC)c1 [Compound 157] | 320 |  | 6940 | 
CC(C)(C)[C@H](NC(=O)C1(C(F)(F)F)CC1)C(=O)N1C[C@H]2[C@@H]([C@H]1C(=O)N[C@H](C#N)C[C@@H]1CCNC1=O)C2(C)C [Compound 151] | 85 |  | 207 | 
CC(C)(C)[C@H](NC(=S)NC1CCC1)C(=O)N1C[C@H]2[C@@H]([C@H]1C(=O)N[C@H](C#N)C[C@@H]1CCN(C(=O)C(F)(F)F)C1=O)C2(C)C [Compound 125] | 68 |  | 708 | 
CC(C)(C)[C@H](NC(=S)N1CCCCC1)C(=O)N1C[C@H]2[C@@H]([C@H]1C(=O)N[C@H](C#N)C[C@@H]1CCNC1=O)C2(C)C [Compound 109] | 875 |  | 985 | 

— patent US11760722B2 (priority 2022, dated 2023)
